Source: patent publication US20230390267A1, “TREATMENT REGIMENS FOR EARLY IDIOPATHIC PARKINSON'S DISEASE” (BIAL - PORTELA & CA., S.A., priority 2020, published 2023)
Read-outs that look alike come from different tables or passages of the source.

Columns and labels:
[1] = test system: patients with early idiopathic Parkinson's disease treated with levodopa/DDCI, with no signs of motor complications; test: EPSILON Phase III double-blind placebo-controlled study, efficacy; format: in vivo, human
Description: The primary endpoint was the change from baseline to end of double-blind period in MDS-UPDRS Part III (motor) scores, and secondary outcomes assessed non-motor symptoms, quality of life and global clinical impressions of change.
Subjects were between 30 and 80 years of age, inclusive, diagnosed with early idiopathic Parkinson's disease according to the United Kingdom Parkinson's Disease Society Brain Bank Clinical Diagnostic Criteria within the previous 5 years, with disease severity stage 1-2.5 (according to modified Hoehn & Yahr staging) and a MDS-UPDRS Part III score>20. Alternatively, the subjects were diagnosed with early idiopathic Parkinson's disease according to the […] within the previous 5 years, with disease severity stage 1-2.5 (according to modified Hoehn & Yahr staging) and a MDS-UPDRS Part III score>20.
322 subjects completed the double-blind phase (FIG. 10).
Study treatment was administered in combination with the subject's existing treatment of levodopa/DDCI.
The primary efficacy parameter, change from baseline (Visit 2) in MDS-UPDRS Part III total score at the end of the double-blind period (Visit 9), was analyzed using a Mixed Model Repeated Measures (MMRM) approach with fixed effects for baseline, center/country, (randomized) treatment, visit, treatment by visit interaction and baseline by visit interaction, and subject as a random effect. Difference between treatment groups (opicapone versus placebo) was estimated from the model.
A similar MMRM analysis used for the primary endpoint was used for relevant secondary efficacy endpoints in the double-blind period. The secondary endpoints included: • Change from baseline (Visit 2) to post-baseline visits during the double-blind trial in: • MDS-UPDRS scores: Parts I, II, III and IV, and Part II+III total • Modified Hoehn & Yahr staging total score during maximum ‘ON’ response • Schwab and England scale score • Parkinson's Disease Sleep Scale 2 (PDSS-2) total score • MDS-Non-motor Symptom Scale (MDS-NMSS) total and subdomain scores • Parkinson's Disease Questionnaire (PDQ-39) total and subdomain scores • 9-item Wearing-off questionnaire (WOQ9) total and sub-section (motor and non-motor) scores • Clinical Global Impression of Improvement (CGI-I) • Patient's Global Impression of Improvement (PGI-I)
The proportion of subjects with an improvement from baseline in CGI-I (preferably relative to before the beginning of treatment) and PGI-I (preferably relative to their admission to the study) scores at the end of the double blind period (Visit 9) endpoint was analysed using logistic regression, with (randomized) treatment included in the model.

[2] = test system: PD patients with motor fluctuations (Japanese population); details: p<0.05, cited from earlier work
[3] = cited from earlier work

Cc1c(Cl)c(C)[n+]([O-])c(Cl)c1-c1noc(-c2cc(O)c(O)c([N+](=O)[O-])c2)n1 [opicapone, 2,5-dichloro-3-[5-(3,4-dihydroxy-5-nitrophenyl)-1,2,4-oxadiazol-3-yl]-4,6-dimethylpyridine 1-oxide]
MDS-UPDRS Part III total score, change from baseline, LS mean, estimates from MMRM ([1]; OPC 50 mg once daily + L-DOPA/DDCI, Week 24): −6.5
MDS-UPDRS Part III total score, Change from Baseline, Mean ([1]; OPC 50 mg once daily + L-DOPA/DDCI, baseline to 24 weeks): −5.8
MDS-UPDRS Part III total score, Week 24, Mean ([1]; OPC 50 mg once daily + L-DOPA/DDCI, double-blind, Week 24, N = 176): 27.2
MDS-UPDRS Part III total score, LS Mean Diff. (SE) vs placebo, MMRM ([1]; OPC 50 mg vs placebo, Week 2): −0.8 (0.8)
MDS-UPDRS Part II + III total score, LS Mean Diff. (SE) vs placebo ([1]; OPC 50 mg vs placebo, Week 4): −1.4 (0.9)
MDS-UPDRS Part II total score, LS Mean Diff. (SE) vs placebo ([1]; OPC 50 mg vs placebo, Week 4): −0.2 (0.3)
MDS-UPDRS Part III total score, LS Mean Diff. (SE) vs placebo, MMRM ([1]; OPC 50 mg vs placebo, Week 4): −1.2 (0.8)
MDS-UPDRS Part II + III total score, LS Mean Diff. (SE) vs placebo ([1]; OPC 50 mg vs placebo, Week 12): −1.7 (1.06)
MDS-UPDRS Part II total score, LS Mean Diff. (SE) vs placebo ([1]; OPC 50 mg vs placebo, Week 12): −0.2 (0.4)
MDS-UPDRS Part III total score, LS Mean Diff. (SE) vs placebo, MMRM ([1]; OPC 50 mg vs placebo, Week 12): −1.7 (0.9)
MDS-UPDRS Part I total score, LS Mean Diff. (SE) vs placebo ([1]; OPC 50 mg vs placebo, Week 24): −0.2 (0.4)
MDS-UPDRS Part II + III total score, LS Mean Diff. (SE) vs placebo ([1]; OPC 50 mg vs placebo, Week 24): −2.8 (1.3)
MDS-UPDRS Part II total score, LS Mean Diff. (SE) vs placebo ([1]; OPC 50 mg vs placebo, Week 24): −0.7 (0.4)
MDS-UPDRS Part III total score, LS Mean Diff. (SE) vs placebo, MMRM ([1]; OPC 50 mg vs placebo, Week 24): −2.2 (0.9)
MDS-UPDRS Part IV total score, LS Mean Diff. (SE) vs placebo ([1]; OPC 50 mg vs placebo, Week 24): −0.11 (0.1)
PDQ-39 total score, LS Mean Diff. (SE) vs placebo ([1]; OPC 50 mg vs placebo, Week 24): −0.26 (0.77)
PDSS-2 total score, LS Mean Diff. (SE) vs placebo ([1]; OPC 50 mg vs placebo, Week 24): −1.5 (0.7)
MDS-UPDRS Part III total score, Change to Week 2, LS mean ([1]; OPC 50 mg, Week 2): −4.6
MDS-UPDRS Part II + III total score, Change to Week 4, LS mean ([1]; OPC 50 mg, Week 4): −7.3
MDS-UPDRS Part II total score, Change to Week 4, LS mean ([1]; OPC 50 mg, Week 4): −0.8
MDS-UPDRS Part III total score, Change to Week 4, LS mean ([1]; OPC 50 mg, Week 4): −6.0
MDS-UPDRS Part II + III total score, Change to Week 12, LS mean ([1]; OPC 50 mg, Week 12): −7.4
MDS-UPDRS Part II total score, Change to Week 12, LS mean ([1]; OPC 50 mg, Week 12): −0.7
MDS-UPDRS Part III total score, Change to Week 12, LS mean ([1]; OPC 50 mg, Week 12): −6.2
MDS-UPDRS Part I total score, change from baseline, LS mean, MMRM ([1]; OPC 50 mg, Week 24): 0.4
MDS-UPDRS Part II + III total score, change from baseline, LS mean, MMRM ([1]; OPC 50 mg, Week 24): −7.4
MDS-UPDRS Part II total score, change from baseline, LS mean, MMRM ([1]; OPC 50 mg, Week 24): −0.4
MDS-UPDRS Part IV total score, change from baseline, LS mean (SE), MMRM ([1]; OPC 50 mg, Week 24): 0.3 (0.1)
NMSS, change from baseline, LS mean, MMRM ([1]; OPC 50 mg, Week 24): −1.4
PDQ-39 total score, change from baseline, LS mean, MMRM ([1]; OPC 50 mg, Week 24): 0.42
PDSS-2 total score, change from baseline, LS mean, MMRM ([1]; OPC 50 mg, Week 24): 0.0
MDS-UPDRS Part I total score, Week 24, Mean ([1]; OPC 50 mg, Week 24, N = 176): 6.7
MDS-UPDRS Part II + III total score, Week 24, Mean ([1]; OPC 50 mg, Week 24, N = 176): 35.7
MDS-UPDRS Part II total score, Week 24, Mean ([1]; OPC 50 mg, Week 24, N = 176): 8.5
MDS-UPDRS Part IV total score, Week 24, Mean (SD) ([1]; OPC 50 mg, Week 24, N = 176): 0.2 (0.8)
NMSS, Week 24, Mean ([1]; OPC 50 mg, Week 24, N = 176): 15.9
PDQ-39 total score, Week 24, Mean ([1]; OPC 50 mg, Week 24, N = 176): 15.4
PDSS-2 total score, Week 24, Mean ([1]; OPC 50 mg, Week 24, N = 176): 11.6
MDS-UPDRS Part I total score, Change from Baseline, Mean ([1]; OPC 50 mg, baseline to week 24): 0.3
MDS-UPDRS Part II + III total score, Change from Baseline, Mean ([1]; OPC 50 mg, baseline to week 24): −6.2
MDS-UPDRS Part II total score, Change from Baseline, Mean ([1]; OPC 50 mg, baseline to week 24): −0.4
MDS-UPDRS Part IV total score, Change from Baseline, Mean (SD) ([1]; OPC 50 mg, baseline to week 24): 0.2 (0.8)
NMSS, Change from Baseline, Mean ([1]; OPC 50 mg, baseline to week 24): −3.0
PDQ-39 total score, Change from Baseline, Mean ([1]; OPC 50 mg, baseline to week 24): −0.29
PDSS-2 total score, Change from Baseline, Mean ([1]; OPC 50 mg, baseline to week 24): −0.4
symptomatic reduction in MDS-UPDRS Part III total score compared to placebo ([1]; baseline to end of double-blind period, p=0.010): 2.2 points
symptomatic reduction in MDS-UPDRS Part II+III total score compared to placebo ([1]; baseline to end of double-blind period, p=0.036): 2.8 points
magnitude of the changes in MDS-UPDRS Part I, MDS-UPDRS Part IV or PDQ-39 total scores ([1]; both groups (opicapone and placebo), double-blind period): less than 0.4 points
NMSS Domain 7 (urinary) subdomain score vs placebo ([1]; especially at Week 12 and Week 24 (p<0.05)): Significant improvements
proportion of patients who reported motor complications ([1]; opicapone 50 mg, end of 24-week double-blind period): 5.5%
proportion of patients reporting an improvement in their clinical condition (PGI-I score) ([1]; opicapone 50 mg, end of double-blind period, p=0.026 vs placebo): 57.9%
proportion of patients with an improvement in clinical condition assessed by a clinician (CGI-I score) ([1]; opicapone 50 mg, end of double-blind period, p=0.493 vs placebo): 50.3%
WOQ-9: proportion of subjects whose dexterity improved post-study medication ([1]; opicapone treated group): 56.6%
WOQ-9: proportion of subjects whose muscle cramping improved post-study medication ([1]; opicapone treated group): 28.3%
WOQ-9: proportion of subjects whose slowness of movement improved post-study medication ([1]; opicapone treated group): 66.2%
WOQ-9: proportion of subjects whose stiffness improved post-study medication ([1]; opicapone treated group): 56.9%
WOQ-9: proportion of subjects whose tremors improved post-study medication ([1]; opicapone treated group): 65.5%
placebo adjusted reduction in OFF time ([2]; opicapone 25 mg dose group): -0.74 h
placebo adjusted reduction in OFF time ([2]; opicapone 50 mg dose): -0.62 h
increase of minimum plasma concentration (Cmin) for individual levodopa doses ([3]; human, in vivo): up to 2.6 fold
effect on levodopa systemic exposure and peak-to-trough fluctuations ([3]; once daily opicapone 50 mg, levodopa given every 3 and 4 hours): increased systemic exposure to levodopa
